Results from patent US7713950B2, “Antibacterial 1-(4-mono-and di-halomethylsulphonylphenyl)-2-acylamino-3-fluoroproponals and preparation thereof” (Intervet Inc., priority 2003, dated 2010).
In brackets after ≈: the same amount, converted by molar mass. Each block holds one molecule with its values, some of them ahead of it.

Assays:
Type in all cases: cell-based
Escherichia coli = assay: Broth microdilution susceptibility testing (MIC), Escherichia coli; conditions: broth microdilution (NCCLS, 2002), read-out: Minimal inhibitory concentration against Escherichia coli
Method: (§1) The list is not intended, nor should it be construed, to limit the scope of this invention in any manner whatsoever.
(§2) Compounds were tested for antimicrobial activity against several bacterial stains using standard broth microdilution susceptibility testing methodology (NCCLS, 2002). […] The enhanced activity of Compound 1 is especially noteworthy.
(§3) NCCLS. 2002. Performance standards for antimicrobial disk and dilution susceptibility tests for bacteria isolated from animals; approved standard-second edition. NCCLS document M31-A2 [ISBN 1-56238-461-9]. NCCLS, 940 West Valley Road, Suite 1400, Wayne, Pa. 19087-1898 USA.

Pasteurella multocida = assay: Broth microdilution susceptibility testing (MIC), Pasteurella multocida; conditions: broth microdilution (NCCLS, 2002), read-out: Minimal inhibitory concentration against Pasteurella multocida
Method: as §1, §2, §3

[1] = test system: Florfenicol-resistant Pasteurella multocida; assay: Broth microdilution susceptibility testing (MIC), florfenicol-resistant Pasteurella multocida; conditions: for MIC: Pasteurella multocida, broth microdilution (NCCLS, 2002), florfenicol-resistant strain, read-out: Minimal inhibitory concentration against Florfenicol-resistant Pasteurella multocida
Method: as §1, §2, §3

Mannheimia haemolytica = assay: Broth microdilution susceptibility testing (MIC), Mannheimia haemolytica; conditions: broth microdilution (NCCLS, 2002), read-out: Minimal inhibitory concentration against Mannheimia haemolytica
Method: as §1, §2, §3

Staphylococcus aureus = assay: Broth microdilution susceptibility testing (MIC), Staphylococcus aureus; conditions: broth microdilution (NCCLS, 2002), read-out: Minimal inhibitory concentration against Staphylococcus aureus
Method: as §1, §2, §3

five bacterial strains = assay: Broth microdilution susceptibility testing, comparison with florfenicol over the strain panel; conditions: five bacterial strains of Table 2
Method: as §1, §2, §3

SMILES: O=C(N[C@H](CO)[C@H](O)c1ccc([N+](=O)[O-])cc1)C(Cl)Cl [Chloramphenicol, reference compound]
- MIC (Escherichia coli): 4 µg/mL (≈ 12.4 µM)
- MIC (Pasteurella multocida): 0.25 µg/mL (≈ 0.774 µM)
- MIC [1]: 16 µg/mL (≈ 49.5 µM)
- MIC (Mannheimia haemolytica): 1 µg/mL (≈ 3.09 µM)
- MIC (Staphylococcus aureus): 8 µg/mL (≈ 24.8 µM)

SMILES: O=C(N[C@H](CF)[C@H](O)c1ccc(S(=O)(=O)CF)cc1)C(Cl)Cl [Compound 1, N-((1S,2R)-1-(Fluoromethyl)-2-{4-[(fluoromethyl)sulfonyl]phenyl}-2-hydroxyethyl)-2,2-dichloroacetamide]
- MIC (Escherichia coli): 4 µg/mL (≈ 10.6 µM)
- MIC (Pasteurella multocida): 0.06 µg/mL (≈ 0.159 µM)
- MIC [1]: 2 µg/mL (≈ 5.32 µM)
- Activity relative to florfenicol against florfenicol-resistant Pasteurella multocida ([1]; versus florfenicol): 8 fold
- MIC (Mannheimia haemolytica): 0.5 µg/mL (≈ 1.33 µM)
- MIC (Staphylococcus aureus): 2 µg/mL (≈ 5.32 µM)
- Activity compared with florfenicol over the strains tested (five bacterial strains): more active than florfenicol for all five bacterial strains

SMILES: O=C(N[C@H](CF)[C@H](O)c1ccc(S(=O)(=O)CF)cc1)C(F)(F)F [Compound 2]
- MIC (Escherichia coli): 32 µg/mL (≈ 88.6 µM)
- MIC (Pasteurella multocida): 1 µg/mL (≈ 2.77 µM)
- MIC [1]: 8 µg/mL (≈ 22.1 µM)
- MIC (Mannheimia haemolytica): 0.5 µg/mL (≈ 1.38 µM)
- MIC (Staphylococcus aureus): 16 µg/mL (≈ 44.3 µM)

SMILES: O=C(N[C@H](CF)[C@H](O)c1ccc(S(=O)(=O)C(Cl)Cl)cc1)C(Cl)Cl [Compound 3]
- MIC (Escherichia coli): > 128 µg/mL
- MIC (Pasteurella multocida): 0.5 µg/mL (≈ 1.17 µM)
- MIC [1]: 4 µg/mL (≈ 9.37 µM)
- MIC (Mannheimia haemolytica): 0.5 µg/mL (≈ 1.17 µM)
- MIC (Staphylococcus aureus): 8 µg/mL (≈ 18.7 µM)

SMILES: N#CCC(=O)N[C@H](CF)[C@H](O)c1ccc(S(=O)(=O)CF)cc1 [Compound 4]
- MIC (Escherichia coli): 16 µg/mL (≈ 48.1 µM)
- MIC (Pasteurella multocida): 1 µg/mL (≈ 3.01 µM)
- MIC [1]: > 128 µg/mL
- MIC (Mannheimia haemolytica): 0.5 µg/mL (≈ 1.5 µM)
- MIC (Staphylococcus aureus): 8 µg/mL (≈ 24.1 µM)

SMILES: [N-]=[N+]=NCC(=O)N[C@H](CF)[C@H](O)c1ccc(S(=O)(=O)CF)cc1 [Compound 5]
- MIC (Escherichia coli): 8 µg/mL (≈ 23 µM)
- MIC (Pasteurella multocida): 0.25 µg/mL (≈ 0.718 µM)
- MIC [1]: 16 µg/mL (≈ 45.9 µM)
- MIC (Mannheimia haemolytica): 0.25 µg/mL (≈ 0.718 µM)
- MIC (Staphylococcus aureus): 8 µg/mL (≈ 23 µM)

SMILES: C[C@@H](N)C(=O)N[C@H](CF)[C@H](O)c1ccc(S(=O)(=O)CF)cc1 [Compound 6]
- MIC (Escherichia coli): 32 µg/mL (≈ 95.1 µM)
- MIC (Pasteurella multocida): 1 µg/mL (≈ 2.97 µM)
- MIC [1]: 128 µg/mL (≈ 381 µM)
- MIC (Mannheimia haemolytica): 1 µg/mL (≈ 2.97 µM)
- MIC (Staphylococcus aureus): 64 µg/mL (≈ 190 µM)

SMILES: NCC(=O)N[C@H](CF)[C@H](O)c1ccc(S(=O)(=O)CF)cc1 [Compound 7]
- MIC (Escherichia coli): 128 µg/mL (≈ 397 µM)
- MIC (Pasteurella multocida): 1 µg/mL (≈ 3.1 µM)
- MIC [1]: > 128 µg/mL
- MIC (Mannheimia haemolytica): 1 µg/mL (≈ 3.1 µM)
- MIC (Staphylococcus aureus): 64 µg/mL (≈ 199 µM)

The next lines start with results.

- MIC (Escherichia coli): 16 µg/mL (≈ 40.6 µM)
- MIC (Pasteurella multocida): 0.125 µg/mL (≈ 0.317 µM)
- MIC [1]: 2 µg/mL (≈ 5.07 µM)
- MIC (Staphylococcus aureus): 4 µg/mL (≈ 10.1 µM)
SMILES: O=C(N[C@H](CF)[C@H](O)c1ccc(S(=O)(=O)C(F)F)cc1)C(Cl)Cl [Compound 8]
- MIC (Mannheimia haemolytica): 0.5 µg/mL (≈ 1.27 µM)

- MIC (Escherichia coli): 4 µg/mL (≈ 11.7 µM)
- MIC (Pasteurella multocida): 0.25 µg/mL (≈ 0.728 µM)
- MIC [1]: 8 µg/mL (≈ 23.3 µM)
- MIC (Staphylococcus aureus): 8 µg/mL (≈ 23.3 µM)
SMILES: O=C(N[C@H](CF)[C@H](O)c1ccc(S(=O)(=O)CF)cc1)C(F)F [Compound 9]
- MIC (Mannheimia haemolytica): 0.5 µg/mL (≈ 1.46 µM)

- MIC (Escherichia coli): 8 µg/mL (≈ 19 µM)
- MIC (Pasteurella multocida): 0.25 µg/mL (≈ 0.594 µM)
- MIC [1]: 4 µg/mL (≈ 9.51 µM)
- MIC (Staphylococcus aureus): 4 µg/mL (≈ 9.51 µM)
SMILES: O=C(N[C@H](CF)[C@H](O)c1ccc(S(=O)(=O)CF)cc1)C(Cl)Br (stereo partly drawn) [Compound 10]
- MIC (Mannheimia haemolytica): 0.5 µg/mL (≈ 1.19 µM)

- MIC (Escherichia coli): 4 µg/mL (≈ 11.1 µM)
- MIC (Pasteurella multocida): 0.25 µg/mL (≈ 0.695 µM)
- MIC [1]: 4 µg/mL (≈ 11.1 µM)
- MIC (Staphylococcus aureus): 2 µg/mL (≈ 5.56 µM)
SMILES: O=C(N[C@H](CF)[C@H](O)c1ccc(S(=O)(=O)CF)cc1)C(F)Cl (stereo partly drawn) [Compound 11]
- MIC (Mannheimia haemolytica): 0.25 µg/mL (≈ 0.695 µM)

- MIC (Escherichia coli): > 128 µg/mL
- MIC (Pasteurella multocida): 1 µg/mL (≈ 3.25 µM)
- MIC [1]: 32 µg/mL (≈ 104 µM)
- MIC (Staphylococcus aureus): > 128 µg/mL
SMILES: CC(=O)N[C@H](CF)[C@H](O)c1ccc(S(=O)(=O)CF)cc1 [Compound 12]
- MIC (Mannheimia haemolytica): 2 µg/mL (≈ 6.51 µM)

- MIC (Escherichia coli): 8 µg/mL (≈ 22.3 µM)
- MIC (Pasteurella multocida): 0.25 µg/mL (≈ 0.698 µM)
- MIC [1]: 16 µg/mL (≈ 44.7 µM)
- MIC (Staphylococcus aureus): 8 µg/mL (≈ 22.3 µM)
SMILES: CS(=O)(=O)c1ccc([C@@H](O)[C@@H](CF)NC(=O)C(Cl)Cl)cc1 [Florfenicol, reference compound]
- MIC (Mannheimia haemolytica): 1 µg/mL (≈ 2.79 µM)

- MIC (Escherichia coli): 64 µg/mL (≈ 180 µM)
- MIC (Pasteurella multocida): 0.25 µg/mL (≈ 0.702 µM)
SMILES: CS(=O)(=O)c1ccc([C@@H](O)[C@@H](CO)NC(=O)C(Cl)Cl)cc1 [Thiamphenicol, reference compound]
- MIC (Mannheimia haemolytica): 1 µg/mL (≈ 2.81 µM)
